Paper PMC11671526, “β-caryophyllene sensitizes hepatocellular carcinoma cells to chemotherapeutics and inhibits cell malignancy through targeting MAPK signaling pathway” (Frontiers in Pharmacology, 2024)

System: HepG2 cells
Test: Colony formation assay with ectopic PGF expression
Format: cell-based, human
Source text: The placental growth factor (PGF) coding sequence was amplified using gene specific primers and then subcloned into a lentiviral vector pSL4-Flag expressing the puromycin resistance gene to generate pSL4-Flag-PGF vector with a CMV promoter driving PGF expression. The primers used to amplify the PGF coding sequence, check the amplified DNA fragment and verify its ectopic expression are listed in Supplementary Table S1. Lentiviruses carrying pSL4-Flag-PGF and an empty pSL4-Flag vector were produced and used to infect HCC cells based on our previously reported procedure ([Wan et al., 2012]). Ectopic PGF expression was achieved by infecting HCC cells with pSL4-Flag-PGF lentivirus, and the control cells were produced by infecting HCC cells using lentivirus carrying the empty pSL4-Flag-vector.
HepG2 cells were cultured overnight into 12-well plates with a density of 1×10^3 cells/well. The cells were then individually infected by pSL4-Flag-vector and pSL4-Flag-PGF lentiviruses. After 24 h, the cells were cultured in a complete medium containing 150 µM of BCP or an equal volume of ethanol for 10 days. The plates were washed using ice-cold PBS three times and cells were fixed using 70% ice-cold methanol for 20 min. […] The stained wells were photographed and clonogenicity was analyzed using ImageJ software.

C=C1CC/C=C(\C)CC[C@@H]2[C@@H]1CC2(C)C [BCP, β-caryophyllene]
colony formation (HepG2 carrying pSL4-vector, 150 µM BCP 10 days, compared to control without BCP): significantly decreased colonies
colony formation (HepG2 expressing ectopic PGF vs empty vector, same BCP treatment (150 µM, 10 days)): more colonies
